The values below come from US9139652B2, “Method for increasing M1 macrophages in a patient” (TRANSGENE SA, priority 2011, dated 2015).

For data set [1], the system named is differentiating macrophages. Description: Human macrophage differentiation assay: cytotoxicity / cell counts at day 6. Type of data set: cell-based. An excerpt: Cells were counted following a 6-day culture of monocytes with GM-CSF and CSF-1, in the presence or absence of anti-CD115 mAbs or F(ab′)2 or with GW2580. Controls included cultures treated with rituximab or rituximab F(ab′)2, or without any added compound.
Buffy coats were provided by the Etablissement Francais du Sang (EFS, Strasbourg). Peripheral blood mononucleated cells (PBMC) were obtained by centrifugation on a ficoll gradient. Monocytes were purified by immunomagnetic cell sorting, using CD14-antibody-coated beads (Miltenyii). […] Monocytes were differentiated for 6 days in 48-well plates (3×10^5 cells/well) in RPMI-Glutamax™ medium supplemented with 10% heat inactivated fetal calf serum and 1% tri-antibiotic mixture (penicillin, streptomycin, neomycin). GM-CSF (10 ng/ml) was added in the cell culture medium from day 0 to day 3. H27K15, other antibodies or internal control GW2580 (LC Labs) were added at day 0. On day 3 post-isolation, monocytes were washed with PBS and further cultivated in medium supplemented with CSF-1 (10 ng/ml) and GM-CSF (2 ng/ml), in the presence or absence of antibodies or GW2580. On day 6, supernatants were collected and stored at −20° C. Cells were detached from the plastic and pools of triplicates were analyzed by IC/FC (immunocytochemistry/flow cytometry) for cell sizes and expression of FcγR and CD86. Cytokines and chemokines were quantified in the culture supernatants by multiplex (Bioplex, Bio-Rad) or by ELISA.
Three different doses of mab H27K15 or isotype control rituximab (0.1; 1 or 10 μg/ml) were added to the culture medium at the beginning of the culture and again 3 days later. F(ab′)2 generated from H27K15 or from rituximab were tested in parallel at equivalent molar concentrations.
Cell viability was analyzed at day 6 by counting 5 microscope fields in each well of the plate (one in the center of the well and four fields at mid-distance between the center and the side of the well).

For data set [2], the system named is MCP-1/CCL2 secretion by macrophages. Nature of the data set: Human macrophage differentiation assay: MCP-1 in day-6 culture supernatants. The data set is classed as cell-based. The conditions noted are these: day-6 macrophage supernatants, GW2580 1 μM vs no treatment. As for the experimental part: MCP-1 and IL-6 were titrated in the culture supernatants from day-6 macrophages differentiated in the presence of mAb H27K15 (1 μg/ml), GW2580 (1 μM) or their respective negative controls rituximab or no treatment. Percentages of reduction in MCP-1 (upper panel) or in IL-6 production (lower panel) were calculated for the 3 blood donors as: 100−[100×cytokine concentration with test compound (pg/ml)/cytokine concentration with control (pg/ml)].
Buffy coats were provided by the Etablissement Francais du Sang (EFS, Strasbourg). Peripheral blood mononucleated cells (PBMC) were obtained by centrifugation on a ficoll gradient. Monocytes were purified by immunomagnetic cell sorting, using CD14-antibody-coated beads (Miltenyii). Enriched monocyte suspensions were more than 95% pure. Monocytes were differentiated for 6 days in 48-well plates (3×10^5 cells/well) in RPMI-Glutamax™ medium supplemented with 10% heat inactivated fetal calf serum and 1% tri-antibiotic mixture (penicillin, streptomycin, neomycin). GM-CSF (10 ng/ml) was added in the cell culture medium from day 0 to day 3. […] Cells were detached from the plastic and pools of triplicates were analyzed by IC/FC (immunocytochemistry/flow cytometry) for cell sizes and expression of FcγR and CD86. Cytokines and chemokines were quantified in the culture supernatants by multiplex (Bioplex, Bio-Rad) or by ELISA. […]

Data set [3] has as its system MMP-9 production by monocytes cultured with GM-CSF and CSF-1. Description: MMP-9 ELISA in day-6 supernatants of monocytes cultured with GM-CSF and CSF-1. Type of data set: cell-based, human. The conditions noted are these: GW2580, effect in 2 out of 3 donors. As for the experimental part: FIG. 6. Monocytes isolated from 3 different blood donors were differentiated for 6 days in the presence of GM-CSF and CSF-1, with or without mAb H27K15, Rituximab or GW2580. MAb H27K15 or Rituximab (0.1, 1 or 10 μg/ml) or equimolar concentrations of F(ab)′2 derived from both mAbs were added to the cultures. MMP-9 was titrated by ELISA (R&D Systems) in day-6 culture supernatants.
(§1) Buffy coats were provided by the Etablissement Francais du Sang (EFS, Strasbourg). Peripheral blood mononucleated cells (PBMC) were obtained by centrifugation on a ficoll gradient. Monocytes were purified by immunomagnetic cell sorting, using CD14-antibody-coated beads (Miltenyii). Enriched monocyte suspensions were more than 95% pure. […] Cells were detached from the plastic and pools of triplicates were analyzed by IC/FC (immunocytochemistry/flow cytometry) for cell sizes and expression of FcγR and CD86. Cytokines and chemokines were quantified in the culture supernatants by multiplex (Bioplex, Bio-Rad) or by ELISA.
CD14^+ monocytes from 3 different donors were allowed to differentiate in the presence of both GM-CSF and CSF-1, known to induce macrophage differentiation towards respectively the M1- and M2-types. […] After 6 days of culture, MMP-9 concentrations were measured in the supernatants by ELISA (FIG. 6). […]
In general terms: In an ELISA, binding on a coated surface is turned into a signal by an enzyme label.

Data set [4] deals with IL-12p70 and IL-10 secretion by macrophages. Description: Human macrophage differentiation assay: IL-12p70 and IL-10 in day-6 culture supernatants. The data set is classed as cell-based. Particulars: for IL-12p70 secretion: detection limit 1 pg/ml. As for the experimental part:
IL-12p70 and IL-10 were titrated in the culture supernatants from day-6 macrophages differentiated in the presence of mAb H27K15 (1 μg/ml), GW2580 (1 μM) or their respective negative controls rituximab or no treatment. Left panel: IL-12p70 and IL-10 levels (pg/ml) in macrophage cultures from 3 blood donors. Right: IL-12p70 (pg/ml)/IL-10 (pg/ml) ratios were calculated for each blood donor and each culture condition. In samples where IL-12p70 was undetectable (below the detection limit of 1 pg/m)l, its level was arbitrarily set at 1 pg/ml for the calculation of IL-12p70/IL-10 ratios.
Buffy coats were provided by the Etablissement Francais du Sang (EFS, Strasbourg). Peripheral blood mononucleated cells (PBMC) were obtained by centrifugation on a ficoll gradient. Monocytes were purified by immunomagnetic cell sorting, using CD14-antibody-coated beads (Miltenyii). Enriched monocyte suspensions were more than 95% pure. Monocytes were differentiated for 6 days in 48-well plates (3×10^5 cells/well) in RPMI-Glutamax™ medium supplemented with 10% heat inactivated fetal calf serum and 1% tri-antibiotic mixture (penicillin, streptomycin, neomycin). GM-CSF (10 ng/ml) was added in the cell culture medium from day 0 to day 3. H27K15, other antibodies or internal control GW2580 (LC Labs) were added at day 0. On day 3 post-isolation, monocytes were washed with PBS and further cultivated in medium supplemented with CSF-1 (10 ng/ml) and GM-CSF (2 ng/ml), in the presence or absence of antibodies or GW2580. On day 6, supernatants were collected and stored at −20° C. Cells were detached from the plastic and pools of triplicates were analyzed by IC/FC (immunocytochemistry/flow cytometry) for cell sizes and expression of FcγR and CD86. Cytokines and chemokines were quantified in the culture supernatants by multiplex (Bioplex, Bio-Rad) or by ELISA.
To study whether mAb H27K15 could affect macrophage differentiation, purified CD14^+ monocytes were cultured for […] in the presence of GM-CSF and CSF-1, known to induce respectively M1- and M2-type macrophages (Akagawa K. S., 2002; Verreck F. A. et al., 2004). Three different doses of mab H27K15 or isotype control rituximab (0.1; 1 or 10 μg/ml) were added to the culture medium at the beginning of the culture and again 3 days later. F(ab′)2 generated from H27K15 or from rituximab were tested in parallel at equivalent molar concentrations. F(ab′)2 generated from mAb 1.2 SM (WO 2009/026303) was tested for comparison with the F(ab′)2 derived from H27K15 or rituximab. The known blocking mAb to human CD115, 2-4A5, or the non-blocking mAb 9-4D2 (Sherr C. J. et al., 1989) were assayed and compared with isotype control rat IgG1. […]

The subject of data set [5] is CD86^bright SSC^low macrophage population. Nature of the data set: Human macrophage differentiation assay: CD86^bright SSC^low population by IC/FC. Type of data set: cell-based. Particulars: day-6 macrophages, GW2580 vs no treatment. As for the experimental part: Upper panels: Dot plots showing CD86 staining (x-axis) and side scatter (SSC, y-axis) of macrophages from donor 3 differentiated for 6 days in the presence of H27K15 (left) or negative control rituximab (right). A gate was set on the CD86^bright SSC^low cell population induced by H27K15. Lower panel: Percentages of CD86^bright SSC^low cells with the test compounds at 10, 1 or 0.1 μg/ml* were compared with those in the corresponding negative controls: H27K15 vs rituximab, H27K15-derived F(ab′)2 vs rituximab-derived F(ab′)2, GW2580 vs no treatment. Percentages of increase in the CD86^bright SSC^low cell population were calculated as: 100×percentage of CD86^bright SSC^low cells with test compound/percentage of CD86^bright SSC^low cells with control. Shown are the mean percentages of increase in the CD86^bright SSC^low cell population from the 3 blood donors. *except for F(ab′)2: 6.6; 0.6; and 0.06 μg/ml.
Buffy coats were provided by the Etablissement Francais du Sang (EFS, Strasbourg). Peripheral blood mononucleated cells (PBMC) were obtained by centrifugation on a ficoll gradient. […] Cells were detached from the plastic and pools of triplicates were analyzed by IC/FC (immunocytochemistry/flow cytometry) for cell sizes and expression of FcγR and CD86. Cytokines and chemokines were quantified in the culture supernatants by multiplex (Bioplex, Bio-Rad) or by ELISA. […]

Data set [6] concerns CD64 (FcγRI) expression in human macrophages. Nature of the data set: Human macrophage differentiation assay: surface CD64 expression by IC/FC. The data set is classed as cell-based. Particulars: day-6 macrophages, GW2580 vs no treatment. As for the experimental part:
Macrophages obtained following a 6-day culture of monocytes from 3 different blood donors with GM-CSF and CSF-1 were analyzed by IC/FC for surface expression of CD64. Upper panels: CD64 staining in cultures from donor 1 treated with monoclonal antibody H27K15 (left, bold line) or with GW2580 (right, bold line) or their respective negative controls rituximab (left, thin line) or no treatment (right, thin line). Lower panel: Medians of fluorescence intensities in macrophage cultures treated with test compounds at 10, 1 or 0.1 μg/ml* were compared with those in the corresponding negative controls: H27K15 vs rituximab, H27K15-derived F(ab′)2 vs rituximab-derived F(ab′)2, mAbs 2-4A5 or 9-4D2 vs rat IgG1, GW2580 vs no treatment. Percentages of reduction in CD64 expression were calculated as: 100−[100×Median fluorescence intensity with test compound/Median fluorescence intensity with control]. […]
Buffy coats were provided by the Etablissement Francais du Sang (EFS, Strasbourg). […] Cells were detached from the plastic and pools of triplicates were analyzed by IC/FC (immunocytochemistry/flow cytometry) for cell sizes and expression of FcγR and CD86. Cytokines and chemokines were quantified in the culture supernatants by multiplex (Bioplex, Bio-Rad) or by ELISA. […]

Data set [7] has as its system CD163-positive M2-type macrophages. Nature of the data set: Flow cytometry of CD163-positive cells in day-6 macrophages. The data set is classed as cell-based, human. Particulars: 3 donors. As for the experimental part: FIG. 7 Cells obtained after 6-day culture with GM-CSF and CSF-1 were harvested and incubated for 20 min at 4° C. with PBS containing human IgG Fc fragments to saturate Fc receptors. Fluorochrome-conjugated mAbs (anti-CD14-PerCP-Cy5.5, anti-CD163-PE, anti-CD206-APC, anti-CD1a-FITC, BD Biosciences) were then incubated with each sample for 20 min at 4° C. FCM analysis was performed using a FACS LSR-II (BD biosciences) with the DIVA software. Data from 3 different blood donors are presented.
as §1, with “ELISA. […]” for “ELISA.”
The surface expression of CD163 was analyzed by flow cytometry in day-6 macrophages derived from human monocytes cultured with GM-CSF and CSF-1. […]
(In general: Flow cytometry measures light scatter and fluorescence of single cells or particles in a stream.)

Like-named read-outs stand apart in the source and are kept apart here.

On to “Rituximab F(ab′)2: F(ab′)2 produced by pepsine digestion of rituximab, negative control”, for which the “Microscopical observation of day-6 cultures (cytotoxicity)” value (“Microscopical observation” for short) in data set [1] (compared with untreated cells, independently of the blood donor, monocytes cultured with GM-CSF and CSF-1) is “no obvious differences”.

With `COc1ccc(COc2ccc(Cc3cnc(N)nc3N)cc2OC)cc1` [GW2580], the “Suppression of MCP-1 production” value in data set [2] is recorded as “as efficacious as H27K15”. Besides, in data set [3], the MMP-9 production entry is “dose-dependent decrease”. In data set [4] (GW2580 1 μM), the IL-10 production entry was “inhibition of IL-10 production” and the IL-12p70 secretion entry is on record as “not detectable”. Moreover, in data set [4] (GW2580 1 μM vs no treatment), the IL-12p70/IL-10 ratios result is on record as “increased”. In addition, the “Induction of CD86^bright SSC^low cell sub-population” value in data set [5] was “had appeared”. The “Microscopical observation” value in data set [1] (1 μM, all blood donors, debris and less density of cells) is “relative cytotoxicity”. Further, in data set [1] (GW2580 1 μM, cell counts in 5 microscope fields (FIG. 1)), the “Macrophage number remaining at day 6 compared with untreated cultures” value was “approximately 70%”. Moreover, the “Surface expression of CD64” value in data set [6] is “drastically reduced”. For the same compound, the “Differentiation of the CD163+ macrophage population (CD163 expression)” value in data set [7] was “had the same effect in only ⅔ donors”.

For the compound “Rituximab: human IgG1 isotype control, obtained from Roche”, the IL-12p70 secretion entry in data set [4] (3 blood donors, mAb 1 μg/ml) was “did not produce any detectable IL-12p70”. In data set [1], the “Microscopical observation” value is given as “no obvious differences”.
